From PubChem BioAssay (NCI) come the findings set out here.

Where “and” joins values, the source holds several entries; their conditions need not be identical. Equal values may be shown once.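 In this assay, cells in 96-well plates receive the compound at five concentrations for 48 hours. Endpoints are linearly interpolated between the surrounding concentrations. GI50: concentration for 50% inhibition of growth. TGI is the concentration that stops growth completely.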

Some test systems named below: UACC-257 melanoma; SNB-19 CNS; SK-MEL-5 melanoma; OVCAR-5 ovarian; OVCAR-3 ovarian; MDA-MB-231 breast; A498 renal; PC-3 prostate; CCRF-CEM leukemia; 786-0 renal; SN12C renal; SR leukemia; IGROV1 ovarian; SK-OV-3 ovarian; HCT-116 colon.
Holding throughout (test): NCI tumour cell line growth inhibition, 48 h

For `Cc1c(F)c(N)c2c(=O)cc(-c3ccc(NC(=O)[C@@H](N)CCCCN)c(F)c3)oc2c1F`, the GI50 in the test with UACC-257 melanoma was 0.302 µM; in the test on SK-MEL-5 melanoma, 13.2 µM and 2.63 µM; in the test with OVCAR-5 ovarian it was 0.947 µM and 0.249 µM; with OVCAR-3 ovarian, 0.508 µM and 0.249 µM; in the test on SR leukemia it was 5.84 µM and 2.53 µM. Further, the TGI is 24.7 µM and 27.8 µM in the test on UACC-257 melanoma; > 78.7 µM and 49.5 µM in the test with SNB-19 CNS; 27.4 µM and 27.2 µM in the test with SK-MEL-5 melanoma; 25.2 µM and 21.9 µM in the test on OVCAR-5 ovarian; 20.7 µM and 14.8 µM with OVCAR-3 ovarian; 33.1 µM and 30.8 µM in the test on MDA-MB-231 breast. Besides, the TGI was 0.22 µM in the test on A498 renal; 32 µM and 29.3 µM in the test with PC-3 prostate; 22.9 µM in the test on CCRF-CEM leukemia; 24 µM and 26.4 µM with 786-0 renal; 31.7 µM and 32.7 µM in the test with SN12C renal; 20.3 µM and 9.55 µM in the test with SR leukemia. Also, the TGI in the test on IGROV1 ovarian is 19.5 µM and 18.1 µM; with SK-OV-3 ovarian, 31.6 µM and 32.6 µM; in the test with HCT-116 colon, 21.5 µM and 22.1 µM.
As for `COC(=O)C1(C)CCCC2(C)C3CCC4CC3(C=C4CO)CCC12` (stereo not given), the TGI in the test with UACC-257 melanoma, in the test with SNB-19 CNS, with SK-MEL-5 melanoma, in the test with OVCAR-5 ovarian, in the test with OVCAR-3 ovarian and with MDA-MB-231 breast was above 100 µM throughout. Also, the TGI is above 100 µM in the test on A498 renal; above 100 µM in the test on PC-3 prostate; above 100 µM in the test with CCRF-CEM leukemia; above 100 µM with 786-0 renal; 60.7 µM in the test on SN12C renal; 62 µM in the test on SR leukemia. Also, the TGI with IGROV1 ovarian, with SK-OV-3 ovarian and in the test with HCT-116 colon was above 100 µM each time.
As for `CC(C)(C)[Si](C)(C)OCC#C[C@@]1(O)CCCCC1CC(Sc1ccccc1)Sc1ccccc1` (stereo not given in full), the TGI with UACC-257 melanoma came to 29.5 µM; in the test with SNB-19 CNS, 28.7 µM; in the test with SK-MEL-5 melanoma it was 29.2 µM; in the test with OVCAR-5 ovarian it was 27.2 µM; in the test with OVCAR-3 ovarian, 26.4 µM; with MDA-MB-231 breast, 34.7 µM. For the same compound, the TGI in the test with A498 renal worked out at 30.4 µM; with PC-3 prostate, 26.3 µM; with CCRF-CEM leukemia, 39.5 µM; with 786-0 renal it was 26.4 µM; in the test with SN12C renal it was 23.8 µM; in the test on SR leukemia, 57.4 µM. Also, the TGI stood at 33.3 µM in the test with IGROV1 ovarian, 34.4 µM in the test with SK-OV-3 ovarian and 24 µM in the test on HCT-116 colon.
In the case of `NS(=O)(=O)c1nnc(/N=C(/CCC(=O)O)C(=O)O)s1`, the TGI in the test on UACC-257 melanoma, in the test on SNB-19 CNS, with SK-MEL-5 melanoma, in the test on OVCAR-5 ovarian, in the test on OVCAR-3 ovarian and with MDA-MB-231 breast was above 100 µM throughout. Moreover, the TGI with A498 renal, with PC-3 prostate, in the test with CCRF-CEM leukemia, in the test with 786-0 renal, with SN12C renal and in the test on SR leukemia was above 100 µM in each case. Also, the TGI in the test with IGROV1 ovarian, with SK-OV-3 ovarian and in the test with HCT-116 colon was above 100 µM in each case.
